Source: the supplement of paper PMC10307832

Legend:
Assay in all cases: relative viability (nuclei count vs DMSO), 5 days (fraction); higher = more cells survive
[1] = test system: PC-14
Method in brief: (§1)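 The day after seeding in 1536-well plates, lung cancer cell lines were treated by pin tool with a single drug, or with a fixed anchor-drug dose together with five library-drug doses (not always all listed) in √10 steps. After 5 days, a combined fix-and-stain solution (final 0.05% Triton X-100, 1% formaldehyde, 1 ug/ml Hoechst) was added. Nuclei counted on 4× images gave relative viability as treated counts over vehicle counts, reported as the median of duplicate plates.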

[2] = test system: NCI-H1915
Method in brief: as §1

[3] = test system: NCI-H1355
Method in brief: as §1

[4] = test system: NCI-H1651
Method in brief: as §1

[5] = test system: EPLC-272H
Method in brief: as §1

[6] = test system: NCI-H2347
Method in brief: as §1

[7] = test system: NCI-H2023
Method in brief: as §1

[8] = test system: LU99A
Method in brief: as §1

[9] = test system: HARA
Method in brief: as §1

[10] = test system: NCI-H838
Method in brief: as §1

[11] = test system: NCI-H358
Method in brief: as §1

[12] = test system: NCI-H2342
Method in brief: as §1

[13] = test system: ABC-1
Method in brief: as §1

[14] = test system: HCC-15
Method in brief: as §1

[15] = test system: LC-2-ad
Method in brief: as §1

[16] = test system: SW 1573
Method in brief: as §1

[17] = test system: UMC-11
Method in brief: as §1

[18] = test system: NCI-H650
Method in brief: as §1

[19] = test system: NCI-H1993
Method in brief: as §1

[20] = test system: NCI-H2085
Method in brief: as §1

[21] = test system: NCI-H2126
Method in brief: as §1

[22] = test system: COR-L23
Method in brief: as §1

## Oc1nc(-c2ccc(C(F)(F)F)cc2)nc2c1CSCC2 [XAV939] + CCNC(=O)c1noc(-c2cc(C(C)C)c(O)cc2O)c1-c1ccc(CN2CCOCC2)cc1 [Luminespib] (partner 0.01 µM)
[1]; first compound 0.08 µM
  relative viability: 0.163
[1]; first compound 0.253 µM
  relative viability: 0.174
[1]; first compound 0.8 µM
  relative viability: 0.164
[1]; first compound 2.53 µM
  relative viability: 0.179
[2]; first compound 0.08 µM
  relative viability: 1.11
[2]; first compound 0.253 µM
  relative viability: 0.449
[2]; first compound 0.8 µM
  relative viability: 0.849
[2]; first compound 2.53 µM
  relative viability: 0.741
[3]; first compound 0.08 µM
  relative viability: 0.814
[3]; first compound 0.253 µM
  relative viability: 0.787
[3]; first compound 0.8 µM
  relative viability: 0.632
[3]; first compound 2.53 µM
  relative viability: 0.47
[4]; first compound 0.08 µM
  relative viability: 0.988
[4]; first compound 0.253 µM
  relative viability: 0.699
[4]; first compound 0.8 µM
  relative viability: 0.896
[4]; first compound 2.53 µM
  relative viability: 0.725
[5]; first compound 0.08 µM
  relative viability: 0.954
[5]; first compound 0.253 µM
  relative viability: 0.361
[5]; first compound 0.8 µM
  relative viability: 0.317
[5]; first compound 2.53 µM
  relative viability: 0.184
[6]; first compound 0.08 µM
  relative viability: 0.419
[6]; first compound 2.53 µM
  relative viability: 0.248
[7]; first compound 0.08 µM
  relative viability: 0.888
[7]; first compound 0.253 µM
  relative viability: 0.604
[7]; first compound 0.8 µM
  relative viability: 0.589
[7]; first compound 2.53 µM
  relative viability: 0.454
[8]; first compound 0.08 µM
  relative viability: 0.277
[8]; first compound 0.253 µM
  relative viability: 0.253
[8]; first compound 0.8 µM
  relative viability: 0.254
[8]; first compound 2.53 µM
  relative viability: 0.195
[9]; first compound 0.08 µM
  relative viability: 1.29
[9]; first compound 0.253 µM
  relative viability: 0.877
[9]; first compound 0.8 µM
  relative viability: 0.865
[9]; first compound 2.53 µM
  relative viability: 0.675
[10]; first compound 0.08 µM
  relative viability: 0.338
[10]; first compound 0.253 µM
  relative viability: 0.37
[10]; first compound 0.8 µM
  relative viability: 0.325
[10]; first compound 2.53 µM
  relative viability: 0.304
[11]; first compound 0.08 µM
  relative viability: 0.289
[11]; first compound 0.253 µM
  relative viability: 0.32
[11]; first compound 0.8 µM
  relative viability: 0.293
[11]; first compound 2.53 µM
  relative viability: 0.412
[12]; first compound 0.08 µM
  relative viability: 0.645
[12]; first compound 0.253 µM
  relative viability: 0.601
[12]; first compound 0.8 µM
  relative viability: 0.546
[12]; first compound 2.53 µM
  relative viability: 0.402
[13]; first compound 0.08 µM
  relative viability: 0.778
[13]; first compound 0.253 µM
  relative viability: 0.584
[13]; first compound 0.8 µM
  relative viability: 0.795
[13]; first compound 2.53 µM
  relative viability: 0.405
[14]; first compound 0.08 µM
  relative viability: 0.465
[14]; first compound 0.253 µM
  relative viability: 0.295
[14]; first compound 0.8 µM
  relative viability: 0.302
[14]; first compound 2.53 µM
  relative viability: 0.235
[15]; first compound 0.08 µM
  relative viability: 1.2
[15]; first compound 0.253 µM
  relative viability: 0.938
[15]; first compound 0.8 µM
  relative viability: 0.973
[15]; first compound 2.53 µM
  relative viability: 0.853
[16]; first compound 0.08 µM
  relative viability: 0.691
[16]; first compound 0.253 µM
  relative viability: 0.249
[16]; first compound 0.8 µM
  relative viability: 0.136
[16]; first compound 2.53 µM
  relative viability: 0.226
[17]; first compound 0.08 µM
  relative viability: 1.04
[17]; first compound 0.253 µM
  relative viability: 0.973
[17]; first compound 0.8 µM
  relative viability: 1.02
[17]; first compound 2.53 µM
  relative viability: 0.886
[18]; first compound 0.08 µM
  relative viability: 0.858
[18]; first compound 0.253 µM
  relative viability: 0.75
[18]; first compound 0.8 µM
  relative viability: 0.93
[18]; first compound 2.53 µM
  relative viability: 0.745
[19]; first compound 0.08 µM
  relative viability: 0.779
[19]; first compound 0.253 µM
  relative viability: 0.672
[19]; first compound 0.8 µM
  relative viability: 0.748
[19]; first compound 2.53 µM
  relative viability: 0.714
[20]; first compound 0.08 µM
  relative viability: 0.446
[20]; first compound 0.253 µM
  relative viability: 0.422
[20]; first compound 0.8 µM
  relative viability: 0.431
[20]; first compound 2.53 µM
  relative viability: 0.406
[21]; first compound 0.08 µM
  relative viability: 0.985
[21]; first compound 0.253 µM
  relative viability: 0.843
[21]; first compound 0.8 µM
  relative viability: 0.869
[21]; first compound 2.53 µM
  relative viability: 0.733
[22]; first compound 0.08 µM
  relative viability: 0.929
[22]; first compound 0.253 µM
  relative viability: 0.642
[22]; first compound 0.8 µM
  relative viability: 0.615
[22]; first compound 2.53 µM
  relative viability: 0.792
